# Laboratory results from patent US10324085B2, “Systems and methods for the monitoring of protein complex formation in cells” (priority 2013, dated 2019).
# Several values for one entry are separate records, joined by “and”; a condition that tells them apart may be missing. Equal entries are not always repeated. Where two headings read alike, the source gives them in different places.
# Experiments:
# ERα-ERα [1] = target: T1, ERα-ERα (Homo sapiens, UniProt P03372); experiment: cell-based
# T1 construct: expressed in transfected cells; host or cells: HEK293
# Target sequence in this assay (P03372 whole entry): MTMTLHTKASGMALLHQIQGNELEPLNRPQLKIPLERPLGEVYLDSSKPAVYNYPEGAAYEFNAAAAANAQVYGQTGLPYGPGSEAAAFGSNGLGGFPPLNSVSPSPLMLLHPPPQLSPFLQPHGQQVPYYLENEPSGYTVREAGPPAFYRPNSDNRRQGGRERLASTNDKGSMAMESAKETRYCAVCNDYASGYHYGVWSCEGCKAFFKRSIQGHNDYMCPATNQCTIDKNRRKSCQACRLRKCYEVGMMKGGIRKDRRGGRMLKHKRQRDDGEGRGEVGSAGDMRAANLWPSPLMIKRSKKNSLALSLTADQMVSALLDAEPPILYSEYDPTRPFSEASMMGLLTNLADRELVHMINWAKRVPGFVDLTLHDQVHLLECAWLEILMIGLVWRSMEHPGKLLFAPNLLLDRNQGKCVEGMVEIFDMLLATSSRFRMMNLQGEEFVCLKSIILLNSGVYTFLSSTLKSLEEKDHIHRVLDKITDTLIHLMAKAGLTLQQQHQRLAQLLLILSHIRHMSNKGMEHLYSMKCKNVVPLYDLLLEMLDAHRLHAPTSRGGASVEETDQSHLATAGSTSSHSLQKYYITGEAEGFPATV
# [2] = target: T2, RXRγ-RARα-CoRNBox complex (Homo sapiens, UniProt P10276); experiment: BRETFect RXRγ-RARα-CoRNBox ternary complex in HEK293 cells; type: cell-based; conditions: 1 μM, 40 min
# T2 construct: expressed in transfected cells; host or cells: HEK293
# T2 sequence (P10276 1-462): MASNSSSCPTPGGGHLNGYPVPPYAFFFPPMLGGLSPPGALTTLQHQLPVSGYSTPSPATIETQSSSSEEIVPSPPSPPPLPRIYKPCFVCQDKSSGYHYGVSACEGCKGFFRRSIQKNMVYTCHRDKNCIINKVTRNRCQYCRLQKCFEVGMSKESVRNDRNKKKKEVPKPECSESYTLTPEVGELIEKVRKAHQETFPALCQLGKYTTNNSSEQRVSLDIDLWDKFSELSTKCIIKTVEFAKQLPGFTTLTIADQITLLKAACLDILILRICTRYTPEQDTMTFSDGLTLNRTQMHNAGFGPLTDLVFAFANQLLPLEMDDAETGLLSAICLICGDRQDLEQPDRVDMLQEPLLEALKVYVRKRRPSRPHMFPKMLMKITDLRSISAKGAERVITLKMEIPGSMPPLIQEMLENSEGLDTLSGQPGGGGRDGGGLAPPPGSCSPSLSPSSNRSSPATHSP
# T2 sequence (P48443 1-463 partner): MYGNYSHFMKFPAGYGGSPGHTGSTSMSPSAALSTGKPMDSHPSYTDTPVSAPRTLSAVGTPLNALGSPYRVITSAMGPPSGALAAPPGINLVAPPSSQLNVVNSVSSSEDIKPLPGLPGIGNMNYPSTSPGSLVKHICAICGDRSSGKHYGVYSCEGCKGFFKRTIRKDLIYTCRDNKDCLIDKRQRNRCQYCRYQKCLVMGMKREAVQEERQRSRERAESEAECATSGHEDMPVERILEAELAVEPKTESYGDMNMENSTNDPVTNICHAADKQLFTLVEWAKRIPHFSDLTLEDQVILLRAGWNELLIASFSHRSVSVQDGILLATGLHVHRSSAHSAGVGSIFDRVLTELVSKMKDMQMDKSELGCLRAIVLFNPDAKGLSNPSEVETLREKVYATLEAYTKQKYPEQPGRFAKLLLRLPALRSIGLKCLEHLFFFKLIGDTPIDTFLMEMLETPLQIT
# Experimental: Cells were treated for 40 min with vehicle DMSO (0) or all-trans retinoic acid (ATRA) before coelenterazine H addition and BRET measurement.
# ERβ = ERβ (Homo sapiens, UniProt Q92731)
# ERα-ERα [3] = target: T1, ERα-ERα; experiment: cell-based; conditions: BRETFect titration curves, HEK293 cells, average of three biological replicates; read-out: EC50 (nM), recruitment of SRC1-RID, ERα-ERα
# Target sequence in this assay (P03372 whole entry): as the sequence (P03372 whole entry) above
# Target sequence in this assay (Q15788 626-753, further chain): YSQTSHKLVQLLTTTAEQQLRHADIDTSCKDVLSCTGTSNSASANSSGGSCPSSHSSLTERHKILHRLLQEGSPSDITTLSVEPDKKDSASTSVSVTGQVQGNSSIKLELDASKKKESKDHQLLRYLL
# ERα-ERβ [4] = target: T3, ERα-ERβ (Homo sapiens, UniProt P03372+Q92731); experiment: cell-based; conditions: BRETFect titration curves, HEK293 cells, average of three biological replicates; read-out: EC50 (nM), recruitment of SRC1-RID, ERα-ERβ
# T3 construct: expressed in transfected cells; host or cells: HEK293
# Target sequence in this assay (Q15788 626-753): as the sequence (Q15788 626-753, further chain) above
# Target sequence in this assay (P03372 whole entry): as the sequence (P03372 whole entry) above
# Target sequence in this assay (Q92731 whole entry): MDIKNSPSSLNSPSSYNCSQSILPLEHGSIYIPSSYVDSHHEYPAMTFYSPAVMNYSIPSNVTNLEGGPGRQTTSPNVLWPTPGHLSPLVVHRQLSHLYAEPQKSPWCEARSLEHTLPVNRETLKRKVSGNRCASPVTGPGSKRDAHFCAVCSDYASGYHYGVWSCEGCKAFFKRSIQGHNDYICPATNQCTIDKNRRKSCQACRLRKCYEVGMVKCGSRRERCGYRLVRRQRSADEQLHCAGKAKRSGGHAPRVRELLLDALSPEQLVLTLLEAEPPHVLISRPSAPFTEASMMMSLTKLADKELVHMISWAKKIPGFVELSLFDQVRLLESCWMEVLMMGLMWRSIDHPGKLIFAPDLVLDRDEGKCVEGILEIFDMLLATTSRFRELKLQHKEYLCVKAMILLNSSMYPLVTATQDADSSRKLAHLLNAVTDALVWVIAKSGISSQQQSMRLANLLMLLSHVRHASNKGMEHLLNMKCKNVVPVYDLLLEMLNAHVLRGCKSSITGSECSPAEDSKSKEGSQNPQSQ
# ERα-ERβ [5] = target: T3, ERα-ERβ; experiment: cell-based
# Target sequence in this assay (Q92731 whole entry): as above
# Target sequence in this assay (P03372 whole entry): as the sequence (P03372 whole entry) above
# Target sequence in this assay (as listed by the source): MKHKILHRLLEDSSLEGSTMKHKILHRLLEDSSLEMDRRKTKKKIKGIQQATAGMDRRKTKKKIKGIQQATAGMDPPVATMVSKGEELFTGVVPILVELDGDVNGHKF
# Chain of ERβ (Q92731 whole entry, species assumed): as the sequence (Q92731 whole entry) above
compound,measurement,setting,value
4-hydroxytamoxifen [OHT],"BRETFect signal (delta BRET), coactivator motif recruitment to ERα dimers",ERα-ERα [1],suppresses coactivator motif recruitment
"CC1=C(/C=C/C(C)=C/C=C/C(C)=C/C(=O)O)C(C)(C)CCC1 [ATRA, all-trans retinoic acid]","RXRγ-RARα-CoRNBox ternary complex, net BRET",[2],the ternary complex is disassembled
"C[C@]12CC[C@@H]3c4ccc(O)cc4CC[C@H]3[C@@H]1CC[C@@H]2O [E2, 17-beta-Estradiol]","recruitment of CoApep-Venus to ERβ, BRET",ERβ,E2-induced
"CCCc1c(-c2ccc(O)cc2)nn(-c2ccc(O)cc2)c1-c1ccc(O)cc1 [PPT, propylpyrazole triol]",EC50,ERα-ERα [3],0.968 nM
same,EC50,ERα-ERβ [4],25.1 nM
same,EC50,"ERα-ERα [1]; BRETFect titration curves, HEK293 cells, average of three biological replicates, read-out: EC50 (nM), recruitment of the coactivator motif peptide, ERα-ERα",0.5 nM and 0.547 nM
same,EC50,"ERα-ERβ [5]; BRETFect titration curves, HEK293 cells, average of three biological replicates, read-out: EC50 (nM), recruitment of the coactivator motif peptide, ERα-ERβ",28 nM and 28.4 nM
same,% of the BRETmax for CoApep recruitment by ERα-ERβ heterodimer,ERα-ERβ [5]; relative to BRETmax observed with E2,50%
